System: human iPS cell Toe strain
Experiment: Effect to promote differentiation from human iPS cells into insulin-producing cells (insulin-positive cell rate, Reference Example 1)
Format: cell-based
Settings: 10 μM; average of 30 cases; untreated control 4.9%

Structure (SMILES): O=C1CCC(C(=O)Nc2ncc(-c3ccccc3)s2)n2cccc21 (stereo not shown) [Synthesis Example 1, 8-Oxo-N-(5-phenylthiazol-2-yl)-6,7-dihydro-5H-indolizine-5-carboxamide]
- average insulin-positive cell rate: 13%
